Columns and labels:
[1] = tested on: PD-1 expression on Jurkat cells; experiment: PD-1 expression on PHA/PMA-activated Jurkat T cells (flow cytometry); type: cell-based, human; settings: Jurkat T cell assay, MNK-specific inhibitors
Procedure: (§1) To examine the effect of MNK-specific inhibitors on PD-1 expression, Jurkat cells (Clone E6.1, ATCC, transformed T cells) were used, which express PD-1 when activated through T cell receptor (TCR) signaling. Briefly, Jurkat cells were grown in 1×RPMI with 1× Pen/Strep, and 10% FBS, then about 3×10^6 Jurkat cells were activated in presence of 1 μg/mL PHA (Sigma) and 50 ng/mL PMA (Sigma). Test Cells were treated simultaneously with various concentrations of MNK-specific inhibitor Compound 107 (0, 0.01, 0.1, 1, 3 and 10 μM). After 48 hours, culture supernatants were harvested and examined via sandwich ELISA for the presence of IL-2 using human IL-2 ELISA DuoSet® (R&D Systems, Minneapolis, Minn.). The level of PD-1 on Jurkat cells was examined by incubating cells with fixable dead cell stain (1:20,000; BD Biosciences, San Jose, Calif.) for 15 minutes at 4° C., washed twice with flow staining buffer (1×PBS, 4% FBS and 1 mM EDTA), incubated with human FcR block, then contacted with allophycocyanin (APC) conjugated anti-PD-1 antibody (Biolegend, San Diego, Calif.) for 30 minutes at 4° C., washed two times with flow buffer, and finally cells were fixed with fixation buffer for 20 minutes at 4° C. After fixation, cells were washed twice with flow buffer and re-suspended in flow buffer and assessed for fluorescence using BD Accuri C6 flow cytometer. Data were analyzed using the C6 cytometer software (BD Biosciences, San Jose, Calif.).

Jurkat cells = experiment: Jurkat T cell viability (fixable dead cell stain); type: cell-based; settings: Jurkat T cell assay, MNK-specific inhibitors
Procedure: as §1

[2] = tested on: IL-10 production in primary T cells; experiment: IL-10 production by activated primary T cells; type: cell-based, human

| SMILES | % PD-1 + Inhibition [1] | Cell Death (Jurkat cells) | % IL-10 Inhibition [2] |
| --- | --- | --- | --- |
| Cc1cc(Nc2cc(N)ncn2)c(=O)n2c1C(=O)NC21CCCC1.Cl [Compound 98] | +++ (+++ = 50-75%) | − (− = 0-10%) | – |
| Cc1cc(Nc2ncnc(N)c2Cl)c(=O)n2c1C(=O)NC21CCN(C2CC2)CC1 [Compound 752] | − (− = 0-10%) | − (− = 0-10%) | – |
| Cc1cc(Nc2ncnc(N)c2Cl)c(=O)n2c1C(=O)NC21CCN(CCC(F)(F)F)CC1 [Compound 775] | − (− = 0-10%) | − (− = 0-10%) | – |
| Cc1cc(Nc2ncnc(N)c2Cl)cc2c1C(=O)NC21CCCCC1 [Compound 462] | ++++ (++++ = 75-100%) | + (+ = 10-25%) | – |
| Cc1cc(Nc2ncnc(N)c2Cl)c(=O)n2c1C(=O)N[C@@]21CCCNC1 [Compound 970] | +++ (+++ = 50-75%) | − (− = 0-10%) | – |
| Cc1cc(Nc2ncnc(N)c2C)c(=O)n2c1C(=O)NC21CCOCC1 [Compound 626] | ++ (++ = 25-50%) | − (− = 0-10%) | – |
| Cc1cc(Nc2ncnc(N)c2Cl)c(=O)n2c1C(=O)NC21CCCNC1 (stereo not shown) [Compound 750] | +++ (+++ = 50-75%) | − (− = 0-10%) | ++++ (++++ = 75-100%) |
| Cc1cc(Nc2ncnc(N)c2OCCN)c(=O)n2c1C(=O)NC21CCCCC1 [Compound 827] | ++ (++ = 25-50%) | − (− = 0-10%) | – |
| Cc1cc(Nc2ncnc(N)c2C)c(=O)n2c1C(=O)NC21CCN(CC(F)F)CC1 [Compound 590] | ++ (++ = 25-50%) | − (− = 0-10%) | ++++ (++++ = 75-100%) |
| Cc1cc(-n2ccc3c(N)ncnc32)nc2c1C(=O)NC21CCCCC1 [Compound 652] | ++++ (++++ = 75-100%) | − (− = 0-10%) | – |
| Cc1cc(Nc2ncnc(N)c2Cl)c(=O)n2c1C(=O)NC21CNCCC1(C)C (stereo not shown) [Compound 1090] | +++ (+++ = 50-75%) | + (+ = 10-25%) | – |
| Cc1cc(Nc2ncnc(N)c2C)c(=O)n2c1C(=O)NC21CCCN(C)C1 (stereo not shown) [Compound 917] | ++ (++ = 25-50%) | + (+ = 10-25%) | – |
| Cc1cc(Nc2ncnc3[nH]ccc23)cc2c1C(=O)NC21CCCCC1 [Compound 637] | ++++ (++++ = 75-100%) | ++ (++ = 25-50%) | – |
| Cc1cc(Nc2ncnc(N)c2Cl)c(=O)n2c1C(=O)NC21CCCCC1 [Compound 474] | +++ (+++ = 50-75%) | − (− = 0-10%) | ++++ (++++ = 75-100%) |
| Cc1cc(Nc2ncnc(N)c2C)c(=O)n2c1C(=O)NC21CNCCC1(C)C (stereo not shown) [Compound 1091] | ++ (++ = 25-50%) | − (− = 0-10%) | – |
| Cc1cc(Nc2ncnc(N)c2Cl)c(=O)n2c1C(=O)NC21CCN(C)CC1(C)C (stereo not shown) [Compound 1008] | +++ (+++ = 50-75%) | ++ (++ = 25-50%) | – |
| CCCN1CCC2(CC1)NC(=O)c1c(C)cc(Nc3ncnc(N)c3Cl)c(=O)n12 [Compound 776] | + (+ = 10-25%) | − (− = 0-10%) | – |
| Cc1cc(Nc2ncnc(N)c2C)cc2c1C(=O)NC21CCCCC1 [Compound 440] | ++++ (++++ = 75-100%) | − (− = 0-10%) | – |
| Cc1cc(Nc2ncnc(N)c2C)nc2c1C(=O)NC21CCCCC1 [Compound 622] | ++++ (++++ = 75-100%) | − (− = 0-10%) | – |
| Cc1cc(Nc2ncnc(N)c2C)c(=O)n2c1C(=O)NC21CCN(CCC(F)(F)F)CC1 [Compound 753] | − (− = 0-10%) | − (− = 0-10%) | – |
| Cc1cc(Nc2ncnc(N)c2Cl)c(=O)n2c1C(=O)NC21CCN(CC(F)F)CC1 [Compound 611] | ++ (++ = 25-50%) | − (− = 0-10%) | – |
| Cc1cc(Nc2ncnc(N)c2Cl)nc2c1C(=O)NC21CCCCC1 [Compound 624] | ++++ (++++ = 75-100%) | + (+ = 10-25%) | – |
| Cc1cc(Nc2ncnc(N)c2Cl)c(=O)n2c1C(=O)NC21CCN(C)C(C)(C)C1 (stereo not shown) [Compound 1053] | + (+ = 10-25%) | − (− = 0-10%) | – |
| Cc1cc(Nc2ncnc(N)c2Cl)c(=O)n2c1C(=O)N[C@]21CCCNC1 [Compound 969] | +++ (+++ = 50-75%) | − (− = 0-10%) | – |
| Cc1cc(Nc2ncnc(N)c2Cl)c(=O)n2c1C(=O)NC21CC(C)N(C)C(C)C1 (stereo not shown) [Compound 1031] | +++ (+++ = 50-75%) | +++ (+++ = 50-75%) | – |
| Cc1cc(Nc2ncnc(N)c2C)c(=O)n2c1C(=O)NC21CCN(CC(F)F)CC1(C)C (stereo not shown) [Compound 1092] | ++ (++ = 25-50%) | − (− = 0-10%) | – |

Reference: patent US10702526B2, “Inhibitors of immune checkpoint modulators and related methods” (eFFECTOR Therapeutics, Inc., priority 2015, dated 2020)
